Earlier results, collected in patent publication US8293800B2, “Quinone derivative 2,3-dimethoxy-5-methyl-6-(10-hydroxydecyl)-1,4-benzoquinone for the treatment of primary progressive multiple sclerosis” (Santhera Pharmaceuticals (Schweiz) AG, priority 2009, dated 2012).

Key:
[1] = chronic-progressive form of MS; 90 mg/day in combination with methylprednisolone over 240 days
[2] = PP-MS cohort; did not reach statistical significance
[3] = PP-MS, placebo-controlled Phase II
[4] = PP-MS patients

COC1=C(OC)C(=O)C(CCCCCCCCCCO)=C(C)C1=O [Idebenone, 2,3-dimethoxy-5-methyl-6-(10-hydroxydecyl)-1,4-benzoquinone]
clinical or neurophysiological efficacy [1]: could not be shown to have any clinical or neurophysiological efficacy

Nc1nc2ccc(OC(F)(F)F)cc2s1 [riluzole]
inhibiting the development of cervical cord atrophy [2]: mild effect

Rituximab: Rituximab, tested in a placebo-controlled Phase II trial in PP-MS
effect on the accumulation of disability [3]: failed to demonstrate any effect

interferon-beta
could slow down the accumulation of disability in PP-MS [4]: Neither
